Measured values from patent publication US6117976A, “Manufacture and use of polypeptides tagged using binding molecules” (Medical Research Council, priority 1993, dated 2000).
Entries after “also recorded” stand apart in the source; their conditions may differ. Where two headings read alike, the source gives them in different places. No end group written: not given here.

Experiments:
calmodulin [1] = biological target: T1, calmodulin (Homo sapiens, UniProt P0DP23); settings: cited from earlier work
[2] = tested on: fluoresceinated TAG-3 peptide; assay: Band shift assay of alternative fusion partners with fluoresceinated TAG-3 peptide; type: binding; settings: 10 μM fluoresceinated TAG-3, TBSC, High-Density Phast Gel, native
Description: 1 μl of purified scFv (D1.3)-CAL (Example 5), scFv(D1.3)-CAL(N-domain), scFv(D1.3)-CAL(C-domain), calmodulin or troponin C were incubated with 10 μM fluoresceinated TAG-3 peptide and 8 μl TBSC. The samples were run on a High-Density Phast Gel (Pharmacia) using native buffer strips, and gel imaged.

[3] = in vivo; cited from earlier work
calmodulin [4] = biological target: T1, calmodulin; settings: 600 nM calmodulin, 50 nM fluorescein-labeled TAG3, 7 μM unlabelled peptide, on ice, up to 4 hrs
Description: 600 nM calmodulin was pre-mixed in TBSC and 10% sucrose with 50 nM fluorescein-labeled TAG3 peptide. Aliquots were incubated on ice with a large excess (7 μM) unlabeled peptide for 0, 0.5, 1, 2, and 4 hrs, and analysed on a native 15% polyacrylamide gel (as in Laemmli, 1970 supra except with CaCl2 to 1 MM) in a Hoefer Mighty Small apparatus, and imaged with a cooled CCD-camera based fluorescent gel imaging system developed in collaboration with Confocal Technologies (Liverpool, UK) and Digital Pixel (Brighton, UK).
600 nM calmodulin was pre-mixed in TBSC and 10% sucrose with 50 nM fluorescein-labeled TAG3 peptide. Aliquots were incubated on ice with a large excess (7 μM) unlabelled peptide for 0, 0.5, 1, 2, and 4 hrs, and analysed on a native 15% polyacrylamide gel (as in Carr & Scott, 1992 supra) except with CaCl2 to 1 mM) in a Hoefer Mighty Small apparatus, and imaged with a cooled CCD-camera based fluorescent gel imaging system developed in collaboration with Confocal Technologies (Liverpool, UK) and Digital Pixel (Brighton, UK).

calmodulin [5] = biological target: T1, calmodulin; assay: Native gel electrophoresis of fluoresceinated TAG peptides with calmodulin; type: binding; settings: excess calmodulin, TBS 1 mM CaCl2, 15% native gel
Description: FIGS. 9A and 9B: Fluorescent and Coomassie blue detection of fluorescent peptide/calmodulin complexes. Native gel electrophoresis of calmodulin and fluoresceinated TAG1 (Track 1), calmodulin and fluoresceinated TAG2 (Track 2), calmodulin and fluoresceinated TAG3 (Track 3), and calmodulin and fluoresceinated TAG4 (Track 4). The gel was first imaged on a UV transilluminator and photographed (FIG. 9A) and then stained with Coomassie blue and photographed (FIG. 9B).
For peptide fluoresceination, 1 mg of each peptide was dissolved in 1 ml of 100 mM NaHCO3, pH 8.9. One volume of peptide was mixed with one volume of water and 2 volumes of 2 mM iodoacetamidofluorescein (Molecular Probes Inc.) in dimethylformamide. The reaction was allowed to proceed for 15 minutes then quenched by adding dithiothreitol to 10 mM final concentration. The fluoresceinated peptides were separated from unreacted fluorescein using a Millipore MEM-SEP cartridge column (TBS=loading and wash buffer; TBS+0.5 M NaCl=elution buffer).
A 20 μl reaction was set up containing ca. 0.4 μg of fluoresceinated peptide and 18 μg of calmodulin (Sigma) in TBS containing 1 mM CaCl2 (TBS is 50 mM Tris-HCl, pH 7.4, 100 mM NaCl in water).

scFv(HyHEL-10)-CAL [6] = type: binding
Description: FIG. 8A: Binding of scFv-CAL and MBP-TAG1 detected by surface plasmon resonance (Pharmacia Biacore). 2500 resonance units (RUs) of turkey egg lysozyme (TEL) (Sigma) were immobilized on a microsensor chip of a BIAcore machine (Pharmacia). A solution of […] (5 μg/ml) in TBSC was injected onto the chip (flow rate 5 μl/min), followed by injections of MBP-TAG1 (5 μg/ml), then 20 mM EGTA (to dissociate the complex) and then MBP (New England Biolabs 5 μg/ml).
Thus HEL was immobilised on the microsensor chip, and the chip saturated with scFv(HyHEL-10)-CAL.
(§1) 2500 resonance units (RUs) of turkey egg lysozyme (TEL) (Sigma) were immobilised on a microsensor chip of a BIAcore machine (Pharmacia). A solution of […] (5 μg/ml) in TBSC was injected onto the chip (flow rate 5 μl/min), followed by injections of MBP-TAG1 (5 μg/ml), then 20 mM EGTA (to dissociate the complex) and then MBP (New England Biolabs 5 μg/ml). […] Conditions were as in Example 7 and FIG. 5, except the gel was stained with Coomassie. Lanes: 1, MBP-TAG1 (0.3 mg/ml); 2, scFv (HyHEL10)-CAL (0.08 mg/ml); 3, scFv (HyHEL-10) (0.08 mg/ml)+MBP-TAG1 (0.3 mg/ml).

scFv(HyHEL-10)-CAL [7] = assay: Native Phast gel analysis of scFv(HyHEL-10)-CAL and MBP-TAG1 interaction; type: binding
Description: FIG. 8B: Homogeneous 20 Native Phast Gel (Pharmacia) for the analysis of scFv(HyHEL-10)-CAL and MBP-TAG1 interaction. Conditions as in FIG. 5, except the gel was stained with Coomassie. Lanes: 1, MBP-TAG1 (0.3 mg/ml); 2, scFv (HyHEL-10)-CAL (0.08 mg/ml); 3, scFv (HyHEL-10) (0.08 mg/ml)+MBP-TAG1 (0.3 mg/ml).
as §1

calmodulin [8] = biological target: T1, calmodulin; assay: Native gel autoradiography of 2-[125I]-melatonin with calmodulin; type: binding; settings: 1 μCi 2-[125I]-melatonin, 15% polyacrylamide gel, 0.5 mM CaCl2, no SDS
Description: In order to assess this, 1 μl calmodulin (1 mg/ml) was incubated with 1 μCi 2-[^125 I]-melatonin in 9 μl TBSC and run on a 15% polyacrylamide gel. The gel was as the running gel of Laemmli (Nature 1970 220 680-685), but with 0.5 mM CaCl2 and no SDS in both gel and buffer.

[9] = Table 1, affinities of calmodulin-binding peptides

Molecule: IKPAKRMKFKTVCYLLVQLMHCRKMFKA-NH2 [AC-28]
- Kd (calmodulin [1]; [9]): 2 nM

Molecule: troponin C
- complex formation with TAG-3 (fluorescent band) [2]: observed; also recorded: binds well

Molecule: calmodulin
- excretion [3]: rapidly excreted in the urine
- immunogenicity [3]: poorly immunogenic
- organ accumulation [3]: does not accumulate selectively in any organ
- toxicity [3]: not toxic
- complex formation with TAG-3 (fluorescent band) [2]: observed

Molecule: QILWFRGLNRIQTQIRVVNAFRSS-NH2 [Ca++ pump]
- Kd (calmodulin [1]; [9]): 10 nM

Molecule: KRRAIGFKKLAEAVKFSAKLMGQAMAKRVK-NH2 [NO-30]
- Kd (calmodulin [1]; [9]): 2 nM

Molecule: C-EIKRAAA-INLKALAALAKKIL-IKRKRQQ-NH2 [TAG 3]
- displacement of fluorescent peptide from calmodulin by unlabelled peptide (calmodulin [4]): not significantly displaced from the calmodulin even after four hours competition
- peptide-calmodulin complex formation (comigration of fluorescent and coomassie bands) (calmodulin [5]): the upper of these that has bound peptide

Molecule: C-EIKRAAA-INLKALAALAKKIL-IK-OH [TAG 4]
- peptide-calmodulin complex formation (comigration of fluorescent and coomassie bands) (calmodulin [5]): stable complex with calmodulin

Molecule: maltose binding protein [MBP]
- binding to chip saturated with scFv(HyHEL-10)-CAL (scFv(HyHEL-10)-CAL [6]): not

Molecule: MBP-TAG1: maltose binding protein with the TAG1 peptide appended at the C-terminus (CEIKRAAAINLKALAALAKKIL)
- stable complex with scFv calmodulin fusion by gel electrophoresis (scFv(HyHEL-10)-CAL [7]): form a stable complex
- binding to chip saturated with scFv(HyHEL-10)-CAL (scFv(HyHEL-10)-CAL [6]; 5 μg/ml in TBSC): shown to bind to the chip
- dissociation of bound protein by EGTA (scFv(HyHEL-10)-CAL [6]; 20 mM EGTA): could be dissociated by addition of EGTA

Molecule: COc1ccc2[nH]cc(CCNC(C)=O)c2c1 [Melatonin, melatonin]
- detection of calmodulin-melatonin complex on gel (radioactive band) (calmodulin [8]): no complex is detected on band shift assays

Molecule: COc1ccc2[nH]c([125I])c(CCNC(C)=O)c2c1 [2-[^125 I]-melatonin]
- detection of calmodulin-melatonin complex on gel (radioactive band) (calmodulin [8]): no radioactive band was detected

Molecule: C-EIKRAAA-INLKALAALAKKIL-OH [TAG 2]
- peptide-calmodulin complex formation (comigration of fluorescent and coomassie bands) (calmodulin [5]): stable complex with calmodulin

Molecule: C-EIKRAAA-INLKALAALAKKIL-NH2 (CEIKRAAAINLKALAALAKKIL-NH2) [TAG 1]
- peptide-calmodulin complex formation (comigration of fluorescent and coomassie bands) (calmodulin [5]): stable complex with calmodulin

Molecule: INLKALAALAKKIL-NH2 [Mastoparan]
- Kd (calmodulin [1]; [9]): 0.3 nM
- Ka (calmodulin [1]; association constant for calmodulin): 3.3e+09 M⁻¹
- Kd (calmodulin [1]; binding to calmodulin, Malencik and Anderson, 1983): 0.3 nM
